Assay results: patent US20170042883A1, “Methods for Detecting and Treating Rhinovirus Infection” (The Procter & Gamble Company, priority 2011, published 2017)

System: rhinovirus infection-induced inflammatory markers (IL-6, IP-10, and RANTES) in BEAS-2B
Assay: rhinovirus infection-induced inflammatory markers in RV-16 infected BEAS-2B cells
Assay type: cell-based, human
Conditions: for anti-inflammatory effects in the rhinovirus infection mediated inflammation model: result in words
Method: The effect of various identified compounds on rhinovirus infection-induced inflammatory markers (IL-6, IP-10, and RANTES) in the human bronchial epithelia cell line, BEAS-2B, was evaluated. Kaempferol, luteolin, quercetin, scutellarein, all-transretinoic acid, 3-hydroxyflavone, fustin, 3-methylquercetin, fisetin, apigenin, oxymetazoline HCl, chrysin, naringenin, pyrrolidinedithiocarbamate ammonium, 7-hydroxyflavone, myricetin, diosmetin, 4′,7-dihydroxyflavone, or eriodictyol was added to cell culture media at various doses at the time of RV-16 infection of BEAS-2B cells. IL-6, IP-10 and RANTES protein levels were measured three days post-infection. Cytotoxicity of the compounds was determined by the uptake of vital dye Rhinovirus infected BEAS-2B cells not exposed to the compounds served as a positive control, achieving maximum cytokine production. BEAS-2B cells not exposed to rhinovirus or the compounds served as a negative control. […] The study was repeated for a subset of compounds, and ibuprofen (20 µM) was added to the cell media with the compounds at the time of infection. IL-6, IP-10 and RANTES protein levels were measured two days post-infection.

Compound	anti-inflammatory effects in the rhinovirus infection mediated inflammation model	levels of biomarkers associated with rhinovirus infection (IL-6, IP-10 and RANTES protein levels) (ibuprofen (20 µM) added with a subset of compounds at time of infection, two days post-infection, in a majority of instances)
3-methylquercetin	anti-inflammatory effects	–
O=c1c(O)c(-c2ccccc2)oc2ccccc12 [3-hydroxyflavone]	anti-inflammatory effects	–
O=c1cc(-c2ccc(O)cc2)oc2cc(O)ccc12 [4′,7-dihydroxyflavone]	anti-inflammatory effects	–
O=c1cc(-c2ccccc2)oc2cc(O)ccc12 [7-hydroxyflavone]	anti-inflammatory effects	–
O=c1cc(-c2ccc(O)cc2)oc2cc(O)cc(O)c12 [Apigenin]	anti-inflammatory effects	–
O=c1c(O)c(-c2cc(O)c(O)c(O)c2)oc2cc(O)cc(O)c12 [Myricetin]	anti-inflammatory effects	–
CC1=C(/C=C/C(C)=C/C=C/C(C)=C/C(=O)O)C(C)(C)CCC1 [all-transretinoic acid]	anti-inflammatory effects	–
O=c1c(-c2ccc(O)cc2)coc2cc(O)ccc12 [daidzein]	anti-inflammatory effects	–
COc1ccc(-c2cc(=O)c3c(O)cc(O)cc3o2)cc1O [diosmetin]	anti-inflammatory effects	–
O=C1C[C@@H](c2ccc(O)c(O)c2)Oc2cc(O)cc(O)c21 [eriodictyol]	anti-inflammatory effects	–
O=c1c(O)c(-c2ccc(O)c(O)c2)oc2cc(O)ccc12 [fisetin]	anti-inflammatory effects	–
O=C1c2ccc(O)cc2O[C@H](c2ccc(O)c(O)c2)[C@H]1O [fustin]	anti-inflammatory effects	–
O=c1c(-c2ccc(O)cc2)coc2cc(O)cc(O)c12 [genistein]	anti-inflammatory effects	–
CC(C)Cc1ccc(C(C)C(=O)O)cc1 (centres unmarked) [ibuprofen]	–	further reduced
O=c1c(O)c(-c2ccc(O)cc2)oc2cc(O)cc(O)c12 [kaempferol]	anti-inflammatory effects	–
O=c1cc(-c2ccc(O)c(O)c2)oc2cc(O)cc(O)c12 [luteolin]	anti-inflammatory effects	–
O=C1C[C@@H](c2ccc(O)cc2)Oc2cc(O)cc(O)c21 [naringenin]	anti-inflammatory effects	–
Cc1cc(C(C)(C)C)c(O)c(C)c1CC1=NCCN1 [oxymetazoline]	anti-inflammatory effects	–
O=c1c(O)c(-c2ccc(O)c(O)c2)oc2cc(O)cc(O)c12 [quercetin]	anti-inflammatory effects	–
C[C@@H]1O[C@@H](OC[C@H]2O[C@@H](Oc3c(-c4ccc(OCCO)c(OCCO)c4)oc4cc(OCCO)cc(O)c4c3=O)[C@H](O)[C@@H](O)[C@@H]2O)[C@H](O)[C@H](O)[C@H]1O [troxerutin]	anti-inflammatory effects	–
